Data published in patent publication US20140023611A1 (priority 2010, published 2014).

Experiments:
human NaP2b (SLC34A2) = molecular target: T1, human NaP2b (SLC34A2) (Homo sapiens, UniProt O95436); assay: Inhibition of NaP2b-mediated Pi (33P) uptake in transfected HEK293 cells, human NaP2b; type: cell-based; conditions: read-out: pIC50 range for human NaP2b (converted)
T1 construct: host or cells: HEK293
T1 sequence (O95436 1-690): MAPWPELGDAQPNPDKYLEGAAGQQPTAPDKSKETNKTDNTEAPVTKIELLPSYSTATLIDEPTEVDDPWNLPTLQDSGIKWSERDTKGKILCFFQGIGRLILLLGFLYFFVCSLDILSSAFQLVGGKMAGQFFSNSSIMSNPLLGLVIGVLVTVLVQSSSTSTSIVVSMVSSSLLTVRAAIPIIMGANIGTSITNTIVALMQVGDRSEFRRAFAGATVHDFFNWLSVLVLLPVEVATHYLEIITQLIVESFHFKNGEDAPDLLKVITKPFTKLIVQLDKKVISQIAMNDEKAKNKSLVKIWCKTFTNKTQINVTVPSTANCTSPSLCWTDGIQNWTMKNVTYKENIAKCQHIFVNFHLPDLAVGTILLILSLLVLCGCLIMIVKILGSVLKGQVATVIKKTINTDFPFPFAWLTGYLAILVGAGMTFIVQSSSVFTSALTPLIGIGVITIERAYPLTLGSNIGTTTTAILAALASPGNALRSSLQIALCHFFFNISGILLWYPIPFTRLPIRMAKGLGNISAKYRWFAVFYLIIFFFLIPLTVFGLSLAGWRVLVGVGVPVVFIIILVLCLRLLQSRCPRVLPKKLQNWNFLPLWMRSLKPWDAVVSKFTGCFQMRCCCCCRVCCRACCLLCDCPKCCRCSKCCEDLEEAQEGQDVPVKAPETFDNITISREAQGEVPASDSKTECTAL
Outline: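 Uptake of 33P-phosphate (100 uM KH2PO4 carrier, sodium vs choline buffer, pH 7.4) measured after 3-30 min at room temperature, with test compound at twelve concentrations from 0.1 nM to 30 uM in duplicate. Cells were HEK293 transfected with mutated human NaP2b (Thr insertion after 37, N39D) and treated with a PiT-silencing agent. pIC50 values from scintillation counts.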

rat NaP2b (SLC34A2) = molecular target: T2, rat NaP2b (SLC34A2) (Rattus norvegicus, UniProt Q9JJ09); assay: Inhibition of NaP2b-mediated Pi (33P) uptake in transfected HEK293 cells, rat NaP2b; type: cell-based; conditions: 33P Pi uptake, 0.1 mM phosphate, value given as pIC50 range
T2 construct: host or cells: HEK293
T2 sequence (Q9JJ09 1-695): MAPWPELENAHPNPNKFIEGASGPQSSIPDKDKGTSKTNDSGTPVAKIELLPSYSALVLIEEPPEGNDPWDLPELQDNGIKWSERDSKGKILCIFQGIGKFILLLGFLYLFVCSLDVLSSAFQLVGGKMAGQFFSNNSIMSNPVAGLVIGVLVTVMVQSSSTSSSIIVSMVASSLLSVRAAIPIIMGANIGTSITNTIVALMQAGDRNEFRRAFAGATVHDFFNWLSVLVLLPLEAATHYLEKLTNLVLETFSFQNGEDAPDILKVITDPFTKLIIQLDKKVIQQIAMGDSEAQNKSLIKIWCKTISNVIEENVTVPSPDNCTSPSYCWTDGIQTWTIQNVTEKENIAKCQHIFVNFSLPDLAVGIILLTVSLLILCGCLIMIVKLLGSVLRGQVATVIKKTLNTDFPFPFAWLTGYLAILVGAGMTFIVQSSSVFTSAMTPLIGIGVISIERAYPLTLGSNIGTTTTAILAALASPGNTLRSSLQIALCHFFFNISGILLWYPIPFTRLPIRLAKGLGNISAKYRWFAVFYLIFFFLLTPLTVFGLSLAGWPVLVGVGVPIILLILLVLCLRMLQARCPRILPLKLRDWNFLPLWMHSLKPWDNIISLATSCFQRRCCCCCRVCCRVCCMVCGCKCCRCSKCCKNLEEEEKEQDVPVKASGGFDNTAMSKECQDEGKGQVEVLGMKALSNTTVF
Outline: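 The cells transiently expressed NaP2b after Lipofectamine transfection. Each compound was run in duplicate over twelve concentrations, 0.1 nM–30 uM.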

IC50 (human NaP2b (SLC34A2))	IC50 (rat NaP2b (SLC34A2))	SMILES
1 to 7.94 µM	1 to 7.94 µM	CN(CCN1CCOCC1)C(=O)c1cccc(C(=O)Nc2ccc(N3CCCCC3)cc2-c2cc(C(=O)N[C@@H]3CCCc4ccccc43)ccn2)c1 [Example 97]
> 31.6 µM	10 to 31.6 µM	CCN(CC)c1ccc(NC(=O)c2cccc(C(=O)N(C)CCN(C)CCOCCOCCOCCNC(=O)NCCN3CCOCC3)c2)c(-c2cc(C(=O)N[C@H]3CCCc4ccccc43)ccn2)c1 [Example 223, (S)—N1-(4-(diethylamino)-2-(4-(1,2,3,4-tetrahydronaphthalen-1-ylcarbamoyl)pyridin-2-yl)phenyl)-N3-methyl-N3-(17-methyl-1-morpholino-4-oxo-8,11,14-trioxa-3,5,17-triazanonadecan-19-yl)isophthalamide]
1 to 7.94 µM	1 to 7.94 µM	O=C(CCSCc1cccc(C(=O)Nc2ccc(N3CCCCC3)cc2-c2cc(C(=O)NCc3cccc(C(F)(F)F)c3)ccn2)c1)NCCOCCOCCOCCOCCOCCOCCOCCO [Example 4.19, 2-(2-(3-(29-Hydroxy-5-oxo-9,12,15,18,21,24,27-heptaoxa-2-thia-6-azanonacosyl)benzamido)-5-(piperidin-1-yl)phenyl)-N-(3-(trifluoromethyl)benzyl)isonicotinamide]
< 1 µM	< 1 µM	CCN(CC)c1ccc(NC(=O)c2cccc(CCCOCCOCCOCCOCCOCCOCCC(=O)O)c2)c(-c2cc(C(=O)N[C@H]3CCCc4ccccc43)ccn2)c1 [Example 304, (S)-22-(3-(4-(diethylamino)-2-(4-(1,2,3,4-tetrahydronaphthalen-1-ylcarbamoyl)pyridin-2-yl)phenylcarbamoyl)phenyl)-4,7,10,13,16,19-hexaoxadocosan-1-oic acid]
< 1 µM	< 1 µM	CCN(CC)c1ccc(NC(=O)c2cccc(CCCOCCOCCOCCOCCOCCC(=O)O)c2)c(-c2cc(C(=O)N[C@H]3CCCc4ccccc43)ccn2)c1 [Example 306, (S)-19-(3-(4-(diethylamino)-2-(4-(1,2,3,4-tetrahydronaphthalen-1-ylcarbamoyl)pyridin-2-yl)phenylcarbamoyl)phenyl)-4,7,10,13,16-pentaoxanonadecan-1-oic acid]

Continued, compound first:

SMILES	IC50 (human NaP2b (SLC34A2))	IC50 (rat NaP2b (SLC34A2))
COc1ccc(CNc2cc(-c3cc(N4CCCCC4)ccc3NC(=O)c3cccc(CSCCC(=O)O)c3)ncn2)cc1OC [Example 3.6, 3-((3-((2-(6-((3,4-Dimethoxybenzyl)amino)pyrimidin-4-yl)-4-(piperidin-1-yl)phenyl)carbamoyl)benzyl)thio)propanoic acid]	10 to 31.6 µM	10 to 31.6 µM
CCN(CC)c1ccc(NC(=O)c2cccc(C(=O)N(C)CCN(C)CCOCCOCCOCCNS(C)(=O)=O)c2)c(-c2cc(C(=O)N[C@H]3CCCc4ccccc43)ccn2)c1 [Example 226, 3-N-[4-(diethylamino)-2-(4-{[(1S)-1,2,3,4-tetrahydronaphthalen-1-yl]carbamoyl}pyridin-2-yl)phenyl]-1-N-(1-methanesulfonamido-12-methyl-3,6,9-trioxa-12-azatetradecan-14-yl)-1-N-methylbenzene-1,3-dicarboxamide]	1 to 7.94 µM	< 1 µM
CC(C)(C)OC(=O)CCOCCOCCOCCOCCCc1cccc(C(=O)Nc2ccc(OC3CCC3)cc2-c2cc(C(=O)N[C@H]3CCCc4ccccc43)ccn2)c1 [Example 284, (S)-tert-butyl 16-(3-((4-cyclobutoxy-2-(4-((1,2,3,4-tetrahydronaphthalen-1-yl)carbamoyl)pyridin-2-yl)phenyl)carbamoyl)phenyl)-4,7,10,13-tetraoxahexadecan-1-oate]	1 to 7.94 µM	1 to 7.94 µM
CCN(CC)c1ccc(NC(=O)c2cccc(COCCOCCOCCOCCOCCOCCN(C)CCN3CCOCC3)c2)c(-c2cc(C(=O)NCc3cccc(C(F)(F)F)c3)ccn2)c1 [Example 179, 2-(5-(diethylamino)-2-(3-(20-methyl-22-morpholino-2,5,8,11,14,17-hexaoxa-20-azadocosyl)benzamido)phenyl)-N-(3-(trifluoromethyl)benzyl)isonicotinamide]	1 to 7.94 µM	1 to 7.94 µM
